Series [1] in a line: Applicant's evaluation of sedation with the cis isomer at therapeutically effective dosages. The format is in vivo. From the text: In an attempt to discover a compound that might have similar effectiveness to doxepin hydrochloride U.S.P. but less associated sedation, the applicant has evaluated the cis isomer, which as mentioned above constitutes less than 18.1 % of doxepin hydrochloride. […] The invention includes pharmaceutical compositions of cis doxepin suitable for administration to patients with affective disorders, painful disorders, or allergic disorders.

For series [2], the system named is pruritic skin lesions of atopic dermatitis. Briefly: Cream applied to pruritic skin lesions by patients with atopic dermatitis. The format is in vivo, human. As to conditions: cream 1.0% by weight, applied two to four times daily. From the text: A cream containing cis doxepin isomer 1.0% by weight is applied two to four times daily to pruritic skin lesions by patients with atopic dermatitis.

The conditions of series [3]: in animals; 'purportedly'; cited from earlier work.

The source of these data is patent US7772275B2, “Compositions and method for treating affective, painful or allergic disorders” (Gideon Pharmaceuticals, Inc., priority 2002, dated 2010).

Structures are written as SMILES.

As for `CN(C)CC/C=C1/c2ccccc2COc2ccccc21.Cl` [cis doxepin hydrochloride], the “sedation compared with doxepin hydrochloride U.S.P.” value in series [1] is on record as “produces less sedation”. Also, in series [2], the relief of itching result is “provides for relief of itching”, the “resolution of the skin lesions” value was “more prompt resolution of the skin lesions” and the “sedation compared with prior art doxepin creams in which the trans isomer is predominant” value is on record as “without producing the incidence or severity of sedation”. Also, in series [3], the “potency compared with doxepin hydrochloride U.S.P.” value was “more potent”.
